# In article PMC8773213, “In Vitro Anticancer Activity and Mechanism of Action of an Aziridinyl Galactopyranoside” (Biomedicines, 2021):
# Where two headings read alike, the source gives them in different places.
# Tests used:
# [1] = system: SW480 (Human colon adenocarcinoma cells); experiment: Resazurin cell viability assay, SW480; assay type: cell-based; conditions: 72 h, read-out: IC50 (Mean ± SEM, µM), SW480
# Method: (§1) Exponentially growing cells were seeded in 96-well plates and allowed to attach and grow for 24 h. The cells were then treated with increasing concentrations of the tested drugs. At the end of the treatment period, cell viability was measured with the MTT assay or the resazurin assay, two widely used techniques.
# (§2) The resazurin assay is a redox-based colorimetric/fluorometric technique based on the ability of viable cells to reduce the blue compound resazurin into the pink, fluorescent and soluble product resorufin. The amount of resorufin produced is generally proportional to the number of living cells. In this assay, 24 h after seeding, cells were exposed to the tested drugs for 72 h. Then 100 μL resazurin in medium was added to each well (final concentration of 10 μg/mL) and, one hour later the fluorescence intensity was measured at 530/590 nm (excitation/emission) using a fluorescence microplate reader.
# (§3) In both assays, cell viability was expressed as percentage compared to untreated cells. Results were expressed as the means ± standard error of the mean (SEM). All data are from at least three independent experiments.
# UV4 and AA8 cells = experiment: Clonogenic survival assay; assay type: cell-based, Chinese hamster; conditions: 10 µM, 24 h, then colonies in drug-free medium
# Method: Cell survival after treatment was determined by clonogenic assay. AA8 and UV4 cells were seeded in 6 cm Petri dishes 4 h prior to treatment for 24 h. After that, drugs were removed and cells were allowed to form colonies for eight days. The colonies were then stained with 0.4% methylene blue in methanol for 15 min. Surviving colonies made up of more than 50 cells per colony were counted. Results were represented as percentage of survival referred to untreated cells.
# [2] = system: HepG2 (Human hepatocellular carcinoma cells); experiment: Resazurin cell viability assay, HepG2; assay type: cell-based; conditions: 72 h, read-out: IC50 (Mean ± SEM, µM), HepG2
# Method: as §1, §2, §3
# [3] = system: UV5 cells (mutated in ERCC2 (XPD), NER deficient); experiment: MTT cell viability assay, UV5 cells; assay type: cell-based, Chinese hamster; conditions: Cricetulus griseus, 24 h exposure, then 48 h in drug-free medium, read-out: IC50 (means ± SEM), UV5 cells
# Method: as §1
# (§4) In the case of the MTT assay, this technique detects viable cells using the ability of these cells to reduce the yellow tetrazolium MTT to an insoluble colored formazan product. Subsequently, this product was solubilized and analyzed by spectrophotometry. Dead cells cannot reduce the MTT into the colored formazan product. Briefly, 24 h after plating, cells were treated with the tested compounds for 48 h; except in experiments with DNA repair-proficient and -deficient cell lines, in which cells were only exposed for 24 h to drugs and allowed to grow for an additional 48 h in drug-free medium to allow them to repair possible DNA damage induced by the tested drugs. […] Finally, plates were incubated overnight at 37 °C and optical densities were measured at 540 nm using an absorbance spectrophotometer microplate reader.
# (§5) In both assays, cell viability was expressed as percentage compared to untreated cells. Results were expressed as the means ± standard error of the mean (SEM). […]
# MRC-5 lung normal cells = experiment: MTT cytotoxicity of combinations, MRC-5; assay type: cell-based; conditions: 48 h
# Method: as §1, §4, §5
# [4] = system: BJ-SV40T (SV40T-transformed BJ-hTERT cells); experiment: Resazurin cell viability assay, BJ-SV40T; assay type: cell-based; conditions: Homo sapiens, 72 h, read-out: IC50 (Mean ± SEM, µM), BJ-SV40T
# Method: as §1, §2, §3
# A549 cells = assay type: cell-based; conditions: A549, 48 h, antioxidant added 1 h before; MTT
# Method: as §1
# In the case of the MTT assay, this technique detects viable cells using the ability of these cells to reduce the yellow tetrazolium MTT to an insoluble colored formazan product. Subsequently, this product was solubilized and analyzed by spectrophotometry. Dead cells cannot reduce the MTT into the colored formazan product. Briefly, 24 h after plating, cells were treated with the tested compounds for 48 h; except in experiments with DNA repair-proficient and -deficient cell lines, in which cells were only exposed for 24 h to drugs and allowed to grow for an additional 48 h in drug-free medium to allow them to repair possible DNA damage induced by the tested drugs. After the treatment period, the medium was removed, the cells were washed once with PBS and 125 μL MTT (1 mg/mL in medium) was added to each well. Plates were incubated for 2–4 h and then 80 μL 20% SDS in 0.02 M HCl was added to each well. Finally, plates were incubated overnight at 37 °C and optical densities were measured at 540 nm using an absorbance spectrophotometer microplate reader.
# as §3
# A549 lung cancer cells = experiment: MTT cytotoxicity of combinations, A549; assay type: cell-based; conditions: 48 h
# Method: as §1, §4, §5
# [5] = system: MRC-5 (Human lung non-malignant cells); experiment: Resazurin cell viability assay, MRC-5; assay type: cell-based; conditions: MRC5, 72 h, read-out: IC50 (Mean ± SEM, µM), MRC-5
# Method: as §1, §2, §3
# [6] = system: BJ-hTERT (hTERT-immortalized skin non-malignant BJ cells); experiment: Resazurin cell viability assay, BJ-hTERT; assay type: cell-based; conditions: Homo sapiens, 72 h, read-out: IC50 (Mean ± SEM, µM), BJ-hTERT
# Method: as §1, §2, §3
# [7] = system: cancer cell lines versus MRC-5 and VH10 normal cell lines; experiment: Resazurin assay, panel of cancer cells versus normal cells; assay type: cell-based, human
# Method: as §1, §2, §3
# Next, we evaluated the cytotoxic activity of AzGalp in cancer cell lines derived from solid tumors (HeLa, PC3, U2OS, HepG2 and SW480) and from hematological malignancies (NB4 and HL-60). To study the selectivity against cancer cells, MRC-5 and VH10 cells were used as normal cell lines; 5-FU was used as a positive control. All cells were treated with AzGalp or 5-FU for 72 h and cell viability was evaluated with the resazurin assay. This assay was used to determine cell viability instead of the MTT assay because the HL60 and NB4 cell lines grow in suspension. […] Leukemia cell lines were approximately 15 times more sensitive than normal cells to the cytotoxicity of our aziridine.
# [8] = system: NB4 (Human acute promyelocytic leukemia cells); experiment: Resazurin cell viability assay, NB4; assay type: cell-based; conditions: 72 h, read-out: IC50 (Mean ± SEM, µM), NB4
# Method: as §1, §2, §3
# [9] = system: AA8 cells (NER proficient); experiment: MTT cell viability assay, AA8 cells; assay type: cell-based, Chinese hamster; conditions: then 48 h in drug-free medium, read-out: IC50 (mean ± SEM), AA8 cells
# Method: as §1, §4, §5
# [10] = system: HeLa (Human cervical carcinoma cells); experiment: Resazurin cell viability assay, HeLa; assay type: cell-based; conditions: 72 h, read-out: IC50 (Mean ± SEM, µM), HeLa
# Method: as §1, §2, §3
# [11] = system: PC3 (Human prostate cancer cells); experiment: Resazurin cell viability assay, PC3; assay type: cell-based; conditions: 72 h, read-out: IC50 (Mean ± SEM, µM), PC3
# Method: as §1, §2, §3
# [12] = 100 μM AzGalp + 10 μM oxaliplatin
smiles,measurement,setting,value
"Cc1ccc(S(=O)(=O)N2CC2(C)CO[C@@H]2O[C@@H]3CO[C@H](c4ccccc4)O[C@@H]3[C@H](OCc3ccccc3)[C@H]2OCc2ccccc2)cc1 (stereo partly drawn) [AzGalp, 2-methyl-2,3-[N-(4-methylbenzenesulfonyl)imino]propyl 2,3-di-O-benzyl-4,6-O-(S)-benzylidene-β-D-galactopyranoside]",IC50,[1],388 ± 30.9 µM
same,"Cell survival, UV4 versus AA8 (clonogenic assay)",UV4 and AA8 cells,UV4 cells were more sensitive
same,IC50,[2],122 ± 12.4 µM
same,IC50,[3],38.6 ± 6.3 µM
same,"Cytotoxicity of combination with 5-FU, normal cells",MRC-5 lung normal cells; 100 μM AzGalp + 10 μM 5-FU,did not increase cytotoxicity against normal cells
same,"Cytotoxicity of combination with oxaliplatin, normal cells",MRC-5 lung normal cells; [12],did not increase cytotoxicity against normal cells
same,IC50,[4],143 ± 8.1 µM
same,Effect of MnTMPyP on cytotoxicity,A549 cells,Neither MnTMPyP nor catalase prevented the cytotoxicity
same,Effect of NAC on cytotoxicity,A549 cells,"slightly prevented cytotoxic activity, it was not statistically significant"
same,Effect of catalase on cytotoxicity,A549 cells,Neither MnTMPyP nor catalase prevented the cytotoxicity
same,"Cytotoxicity of combination with 5-FU, cancer cells",A549 lung cancer cells; 100 μM AzGalp + 10 μM 5-FU,killed more cancer cells than when these drugs were administered individually
same,"Cytotoxicity of combination with oxaliplatin, cancer cells",A549 lung cancer cells; [12],killed more cancer cells than when these drugs were administered individually
same,IC50,[5],341 ± 85 µM
same,IC50,[6],209 ± 24.2 µM
same,Viability of leukemia cells,"[7]; HL60 and NB4, concentrations between 10 and 100 µM, 72 h",5%
same,Viability of normal cells,"[7]; MRC-5 and VH10, concentrations between 10 and 100 µM, 72 h",did not alter the viability of normal cells
same,Sensitivity of leukemia cell lines relative to normal cells,"[7]; NB4 and HL-60 versus MRC-5 and VH10, 72 h",approximately 15 times
same,Cytotoxicity against HepG2 and U2OS relative to normal cell lines,"[7]; versus MRC-5 and VH10, 72 h",approximately 2.5 times
same,IC50,[8],21.4 ± 9.9 µM
same,IC50,[9]; 24 h exposure,319 ± 77.2 µM
same,IC50,"[9]; Cricetulus griseus, CHO-AA8, 24 h exposure",397 ± 142 µM
same,IC50,[10],191 ± 35.8 µM
same,IC50,[11],401 ± 14.8 µM
